# Marks after values point to notes of the source that are not given here.
# Columns and labels:
# Type in all cases: cell-based
# [1] = tested on: loblolly pine (Pinus taeda) embryogenic cell lines; test: Percent increase in fresh weight of pine embryogenic cell lines retrieved from cryopreservation on post-cryopreservation recovery medium (Examples 1 and 2); conditions: DCR1 + 30 mg/l ABA, 26 days after retrieval
# [2] = tested on: loblolly pine (Pinus taeda) embryogenic cell lines; test: as above; conditions: for Additional Culture Growth on DCR1 + ABA: 30 mg/l ABA vs medium without ABA
# Experimental: Each embryogenic culture was cryopreserved as follows. Embryogenic tissue (7 to 14 days since the last subculture) was dispersed in liquid DCR1 medium (the DCR1 medium of Table I without the GELRITE) which contained 0.4 molar sorbitol as described in U.S. Pat. No. 5,506,136. The amount of embryogenic tissue used was sufficient to result in a 40% suspension (i.e., 4 ml volume of embryogenic tissue added to 6 ml of liquid medium). An Erlenmeyer flask containing the suspension was incubated for 24 hours in the dark on a gyrotory shaker (100 rpm), and then placed on ice. Five aliquots of the cryoprotective chemical dimethyl sulfoxide (DMSO) were aseptically added to the suspension to bring the final concentration of DMSO to 10% (vol/vol). One milliliter aliquots of the suspension containing DMSO were then transferred to 2 ml NALGENE® cryogenic vials (manufactured by the Nalge Co.), placed in programmable freezer (Model 9000 manufactured by Gordinier Electronics) and cooled to −35° C. at a rate of 0.33° C. per minute. The cultures were cryopreserved by immersing the cryogenic vials in liquid nitrogen inside a cryogenic storage tank (Model #CY50945 manufactured by Thermolyne, Inc.). The cultures remained in cryogenic storage for at least 36 months prior to retrieval.
# The cryogenic vials were retrieved from the cryogenic storage tank and placed in 44° C. water until the ice crystals in the frozen embryogenic cultures were melted. The thawed culture from each cryogenic vial was aseptically pipetted and dispensed onto a sterile 7 cm×7 cm NITEX nylon 35 μm pore size membrane (commercially available from Sefar, Inc.) which had been placed on top of two sterile filter papers (Whatman no. 2 commercially available from Whatman International Ltd.) to absorb excess liquid from the culture and membrane. Each nylon membrane containing embryogenic culture was then transferred to a DCR1 medium which served as a temporary recovery medium for 24 hours in order to lower the concentration of cryoprotective chemicals and osmotic agents contained in the culture.
# Each nylon membrane containing embryogenic tissue was then transferred to one of two post-cryopreservation medium treatments. One treatment was DCR1 medium without ABA. The other treatment was DCR1 medium with 30 mg/l of ABA. The initial fresh weight (FW0) of the embryogenic tissue was measured aseptically at this time. There were 3 plates (each derived from an individual cryogenic vial) per treatment and cell line. The embryogenic cultures on membranes were transferred after 24 hours, and thereafter, every 14 days to a new plate of the same medium. The culture environment during post-cryopreservation recovery and growth was 23° C. in the dark. At 25 days after retrieval from cryogenic storage the final fresh weight (FWF) of the proliferating embryogenic culture was measured. The growth of the embryogenic tissue during the post-cryopreservation treatments was calculated as a percent increase in fresh weight relative to the initial fresh weight as follows: ((FWF−FW0)/FW0)*100.
# Each cell line was cryopreserved as follows. The liquid suspension cultures (7 days since the last subculture) were aseptically centrifuged at 1500 rpm for 10 minutes (400 g-force) to separate the embryogenic tissue from the liquid medium. The supernatant medium was removed from the embryogenic tissue. To the remaining volume of centrifuged embryogenic tissue, was added an equal volume of liquid DCR1 medium containing 0.8 molar sorbitol, so that the final sorbitol concentration was 0.4 molar. An Erlenmeyer flasks containing each suspension was incubated for 24 hours in the dark on a gyrotory shaker (100 rpm), and then placed on ice. The cryoprotective chemical DMSO was added to the chilled cultures at one time to bring the final concentration of DMSO to 10% (vol/vol). […]
# [3] = tested on: loblolly pine cell lines (G-05, K-12, E-117 and O-72); test: Mean culture fresh weight of embryogenic cultures retrieved from cryopreservation on post-cryopreservation recovery medium (Example 3); conditions: for % Increase of average culture fresh weight over control without ABA: all seven cell lines; for Mean Culture Fresh Weight, average of cell lines: average of all seven cell lines (loblolly and pitch×loblolly hybrid); for Mean Culture Fresh Weight: 28 days after retrieval
# Excerpt: (§1) Five different pine embryogenic cell lines chosen at random from a long-term cryogenic storage bank were initiated, grown as liquid embryogenic suspension cultures, and cryopreserved via the methods described in Examples 1 and 2. The five cell lines included: one pitch×loblolly pine interspecies hybrid cell line (AA-24) and four loblolly pine cell lines (G-05, K-12, E-117 and O-72). Also, two additional pitch×loblolly pine F1 hybrid cell lines (Q-01 and Q-39) were initiated, grown as liquid embryogenic suspension cultures, and cryopreserved via the methods described in Examples 1 and 2 except that the initiation and maintenance media contained 10.0 mg/l of ABA (as taught in U.S. Pat. No. 5,856,191). The seven cell lines were retrieved from cryogenic storage, thawed, and transferred, via the procedure described in Example 2. Each cell line was subjected to three post-cryopreservation medium treatments. The first treatment was a control (i.e., DCR1 medium without ABA), the second treatment was DCR1 medium with 10 mg/l of ABA, and the third treatment was DCR1 medium with 30 mg/l of ABA. There were four plates (each derived from an individual cryogenic vial) per treatment and cell line.
# (§2) The embryogenic cultures on membranes were transferred after 24 hours from the temporary recovery medium onto the post-cryopreservation medium and thereafter, every 14 days to a new plate of the same post-cryopreservation medium. The culture environment during post-cryopreservation recovery and growth was 23° C. in the dark. At 28 days after retrieval from cryogenic storage the final fresh weight of the proliferating embryogenic culture was measured. The data were analyzed using the SAS GLM ANOVA statistical software program (Release 6.12 commercially available from the SAS Institute, Inc.), and the results are shown in Table III below.
# [4] = tested on: pitch×loblolly pine interspecies hybrid cell lines (AA-24, Q-01, Q-39); test: as above
# Excerpt: as §1, §2
# [5] = tested on: loblolly pine embryogenic cell lines; test: Yield of stage 3 somatic embryos from embryogenic cultures retrieved from cryopreservation (Example 4); conditions: for Total Number of Somatic Embryos Harvested: recovered on 30 mg/l ABA, nine weeks on embryo development medium
# Excerpt: The purpose of this experiment was to determine whether addition of ABA to the post-cryopreservation culture medium improved the yield of somatic embryos harvested from the cultures after they were retrieved from cryogenic storage. The six loblolly pine cell lines retrieved from cryogenic storage in Example 1 were used in this experiment. Embryogenic tissue from each cell line was dispersed onto nylon membranes using liquid DCR1 medium (formulation in Table 1 without the GELRITE). Four ml of embryogenic culture retrieved from cryogenic storage of each cell line and treatment (both the no ABA and the 30 mg/l ABA post-cryopreservation recovery medium) was added to 5 ml of liquid DCR1 medium and dispersed by agitation. One ml aliquots of the suspension were dispensed using a sterile 5-ml pipette with a cotton plug. Each 1 ml aliquot was transferred to the surface of a sterile 4 cm nylon membrane positioned on top of two sterile Whatman No. 2 filter papers in the bottom of an empty 15×100 mm sterile plastic culture plate. The nylon membranes with the dispersed embryogenic cultures were placed on either DCR1 medium containing 30 mg/l ABA or the same medium without any ABA depending on their respective post-cryopreservation recovery medium treatments from which they were derived. […] The tissue on the nylon membranes was cultured for 5-6 days at 23° C. in the dark to induce proliferation from the newly dispersed cultures. The nylon membranes with tissue were then transferred to an embryo development medium (see Table IV below) as described in U.S. Pat. No. 5,731,204 (Rutter et al.), to test the yield of stage 3 cotyledonary somatic embryos. The plates with membranes containing the embryogenic cultures were incubated in the dark at 23° C. The nylon membranes with the embryogenic cultures were transferred to new plates containing the same fresh embryo development medium every three weeks. After a total of nine weeks, the number of stage 3 embryos was counted on each membrane, and the data were analyzed using SAS GLM ANOVA statistical software.
# [6] = all six cell lines A1-A6, 30 mg/l ABA
smiles,measurement,setting,value
"CC1=CC(=O)CC(C)(C)[C@@]1(O)/C=C/C(C)=C\C(=O)O [ABA, abscisic acid]",Average Percent Increase in Fresh Weight,[1]; cell line B1,195%
same,Average Percent Increase in Fresh Weight,[1]; cell line B2,29%
same,Average Percent Increase in Fresh Weight,[1]; cell line B4,34%
same,"Additional Culture Growth on DCR1 + ABA, overall","[2]; Average and Increase lines, all ten cell lines, 30 mg/l ABA",yes
same,Increase of overall average percent increase in fresh weight on medium with ABA compared to medium without ABA,"[2]; all ten cell lines, 30 mg/l ABA",70%
same,"Average Percent Increase in Fresh Weight, average of all ten cell lines","[2]; average of cell lines A1-A6 and B1-B4, DCR1 + 30 mg/l ABA",2469%
same,Additional Culture Growth on DCR1 + ABA,[2]; cell line A1,yes
same,Average Percent Increase in Fresh Weight,"[2]; cell line A1, DCR1 + 30 mg/l ABA, 25 days after retrieval",270%
same,Additional Culture Growth on DCR1 + ABA,[2]; cell line A2,yes
same,Average Percent Increase in Fresh Weight,"[2]; cell line A2, DCR1 + 30 mg/l ABA, 25 days after retrieval",7484%
same,Additional Culture Growth on DCR1 + ABA,[2]; cell line A3,yes
same,Average Percent Increase in Fresh Weight,"[2]; cell line A3, DCR1 + 30 mg/l ABA, 25 days after retrieval",4065%
same,Total fresh weight of embryogenic tissue from three cryogenic vials,"[2]; cell line A3, medium with ABA (30 mg/l)",5.17 grams
same,Additional Culture Growth on DCR1 + ABA,[2]; cell line A4,yes
same,Average Percent Increase in Fresh Weight,"[2]; cell line A4, DCR1 + 30 mg/l ABA, 25 days after retrieval",1652%
same,Additional Culture Growth on DCR1 + ABA,[2]; cell line A5,yes
same,Average Percent Increase in Fresh Weight,"[2]; cell line A5, DCR1 + 30 mg/l ABA, 25 days after retrieval",6479%
same,Additional Culture Growth on DCR1 + ABA,[2]; cell line A6,yes
same,Average Percent Increase in Fresh Weight,"[2]; cell line A6, DCR1 + 30 mg/l ABA, 25 days after retrieval",1221%
same,Additional Culture Growth on DCR1 + ABA,[2]; cell line B1,no
same,Additional Culture Growth on DCR1 + ABA,[2]; cell line B2,yes
same,Additional Culture Growth on DCR1 + ABA,[2]; cell line B3,yes
same,Average Percent Increase in Fresh Weight,"[2]; cell line B3, DCR1 + 30 mg/l ABA, 26 days after retrieval",3259%
same,Additional Culture Growth on DCR1 + ABA,[2]; cell line B4,yes
same,% Increase of average culture fresh weight over control without ABA,[3]; 10 mg/l ABA,35%
same,% Increase of average culture fresh weight over control without ABA,[3]; 30 mg/l ABA,52%^a
same,"Mean Culture Fresh Weight, average of cell lines",[3]; 10 mg/l ABA,1.86 g
same,"Mean Culture Fresh Weight, average of cell lines",[3]; 30 mg/l ABA,2.10^a g
same,Mean Culture Fresh Weight,"[3]; cell line E-117, 10 mg/l ABA",0.38^a g
same,Mean Culture Fresh Weight,"[3]; cell line E-117, 30 mg/l ABA",0.33 g
same,Mean fresh weight higher than control treatment without ABA,"[3]; cell line G-05, 10 mg/l ABA",52%
same,Mean Culture Fresh Weight,"[3]; cell line G-05, 10 mg/l ABA",3.82^a g
same,Mean fresh weight higher than control treatment without ABA,"[3]; cell line G-05, 30 mg/l ABA",48%
same,Mean Culture Fresh Weight,"[3]; cell line G-05, 30 mg/l ABA",3.73 g
same,Mean Culture Fresh Weight,"[3]; cell line K-12, 10 mg/l ABA",0.55 g
same,Mean Culture Fresh Weight,"[3]; cell line K-12, 30 mg/l ABA",1.09^a g
same,Mean Culture Fresh Weight,"[3]; cell line O-72, 10 mg/l ABA",0.09 g
same,Mean Culture Fresh Weight,"[3]; cell line O-72, 30 mg/l ABA",0.10^a g
same,Mean Culture Fresh Weight,"[4]; cell line AA-24, 10 mg/l ABA, 28 days after retrieval",5.22 g
same,Mean Culture Fresh Weight,"[4]; cell line AA-24, 30 mg/l ABA, 28 days after retrieval",5.45^a g
same,Mean Culture Fresh Weight,"[4]; cell line Q-01 (initiated and maintained with 10.0 mg/l ABA), 10 mg/l ABA, 28 days",2.91^b g
same,Mean Culture Fresh Weight,"[4]; cell line Q-01 (initiated and maintained with 10.0 mg/l ABA), 30 mg/l ABA, 28 days",3.81^ab g
same,Mean Culture Fresh Weight,"[4]; cell line Q-39 (initiated and maintained with 10.0 mg/l ABA), 10 mg/l ABA, 28 days",0.01 g
same,Mean Culture Fresh Weight,"[4]; cell line Q-39 (initiated and maintained with 10.0 mg/l ABA), 30 mg/l ABA, 28 days",0.17 g
same,% Increase of total number of somatic embryos harvested over control without ABA,[5]; [6],332%
same,"Total Number of Somatic Embryos Harvested, total of the 6 cell lines",[5]; [6],588
same,Total Number of Somatic Embryos Harvested,[5]; cell line A1,404
same,Total Number of Somatic Embryos Harvested,[5]; cell line A2,82
same,Total Number of Somatic Embryos Harvested,[5]; cell line A3,0
same,Total Number of Somatic Embryos Harvested,[5]; cell line A4,43
same,Total Number of Somatic Embryos Harvested,[5]; cell line A5,15
same,Total Number of Somatic Embryos Harvested,[5]; cell line A6,44

# — patent US6682931B2, “Recovering cryopreserved conifer embryogenic cultures” (MeadWestvaco Corporation, priority 1999, dated 2004)
